Values quoted from earlier work, collected in paper PMC3172902 (British Journal of Cancer, 2011).

Biological target: CDK2 (Homo sapiens, UniProt P24941)
Test: cell-free CDK2 inhibition (value printed without citation; method not described)
Format: biochemical

IC50: 19 nM
Substance: NU6252
